Results on 13 compounds are retold here after ChEMBL document CHEMBL1201862, “PubChem BioAssay data set” (2004).

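Dose response: 5 concentrations. Exposure: 48 h. Format: 96-well plates. Endpoint: linear interpolation; highest concentration if not reached. GI50 = concentration required for 50% inhibition of growth.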 Active and inactive are the calls of the source. No stated cut-off is given here; in the data, active = GI50 up to about 1.1 µM and inactive = higher.

Among the test systems are HCT-15; IGROV-1; K562; SF-295; A498; ACHN; SF-268; HCC 2998; HT-29; CAKI-1; KM12; RXF 393; HCT-116; SW-620; SK-MEL-5; NCI-H23; OVCAR-8.
Assay in all cases: NCI anticancer screen, dose series, 48 h

Turning to `Cc1c(C2Cc3ccccc3N2C(=O)/C=C\C(=O)O)c2ccccc2n1C` (stereo not drawn), the GI50 in the assay on HCT-15 was more than 100 µM; in the assay with IGROV-1, 24.4 µM (inactive); in the assay with K562, 36.4 µM (inactive); in the assay with SF-295 it was 24.4 µM (inactive); in the assay on A498, 18 µM (inactive); with ACHN, 38.6 µM (inactive). Further, the GI50 in the assay on SF-268 was 18.7 µM (inactive); with HCC 2998 it was 21.4 µM (inactive); with HT-29, 35.3 µM (inactive); with CAKI-1, 25.8 µM (inactive); in the assay with KM12, 18.4 µM (inactive); in the assay with RXF 393 it was 17.2 µM (inactive). Also, the GI50 is 27.5 µM (inactive) in the assay on HCT-116; 20 µM (inactive) with SW-620; 18.2 µM (inactive) with SK-MEL-5; 25.9 µM (inactive) in the assay with NCI-H23; 18.5 µM (inactive) with OVCAR-8.

In the case of `O=C(Nc1cc(Cl)ccc1Cl)C(=O)C(c1cnc2ccccc2n1)[N+](=O)[O-]` (stereo not drawn), the GI50 with HCT-15 was more than 100 µM; in the assay with IGROV-1 it was > 100 µM (inactive); in the assay on K562 it was > 100 µM (inactive); with SF-295 it was > 100 µM (inactive); in the assay with A498 it was > 100 µM (inactive); in the assay with ACHN, > 100 µM (inactive). Also, the GI50 in the assay on SF-268, in the assay with HCC 2998, in the assay with HT-29, in the assay on CAKI-1, in the assay with KM12 and in the assay with RXF 393 was > 100 µM (inactive) each time. In addition, the GI50 in the assay on HCT-116, with SW-620, in the assay with SK-MEL-5, with NCI-H23 and with OVCAR-8 was > 100 µM (inactive) throughout.

For `O=C1OC(c2ccccc2)=N/C1=C\c1c(O)cc(O)cc1O`, the GI50 is 38 µM with HCT-15; > 100 µM (inactive) in the assay with IGROV-1; 32.4 µM (inactive) in the assay on K562; > 100 µM (inactive) with A498; 53.2 µM (inactive) in the assay with ACHN; 99.5 µM (inactive) in the assay on SF-268. Besides, the GI50 in the assay on HT-29 is > 100 µM (inactive); in the assay with CAKI-1 it was > 100 µM (inactive); in the assay on KM12, > 100 µM (inactive); in the assay on RXF 393 it was > 100 µM (inactive); in the assay with HCT-116, 96.6 µM (inactive); in the assay with SW-620 it was > 100 µM (inactive). For the same compound, the GI50 in the assay with SK-MEL-5, in the assay with NCI-H23 and with OVCAR-8 was > 100 µM (inactive) throughout.

Take `O=[N+]([O-])c1ccc2nc(/C(=N\Nc3ccccc3)C(O)c3ccc4c(c3)OCO4)c(O)nc2c1` (stereo not drawn): the GI50 was 20.7 µM with HCT-15; 7.74 µM (inactive) in the assay on IGROV-1; 36.4 µM (inactive) with K562; > 100 µM (inactive) in the assay on SF-295; 30.7 µM (inactive) in the assay with ACHN; > 100 µM (inactive) with SF-268. Moreover, the GI50 is 75.2 µM (inactive) in the assay on HCC 2998; 97.1 µM (inactive) with HT-29; 41.6 µM (inactive) in the assay on KM12; > 100 µM (inactive) in the assay with RXF 393; > 100 µM (inactive) in the assay with HCT-116; 56.1 µM (inactive) in the assay on SW-620. Also, the GI50 with SK-MEL-5, in the assay with NCI-H23 and with OVCAR-8 was > 100 µM (inactive) throughout.

On to `CC1=CC(=O)N2[C@H](OC[C@@H]2C(C)C)O1`, for which the GI50 with HCT-15 is more than 100 µM; in the assay on IGROV-1 it was > 100 µM (inactive); with K562, > 100 µM (inactive); in the assay on SF-295, > 100 µM (inactive); with ACHN, > 100 µM (inactive); in the assay on SF-268 it was > 100 µM (inactive). Besides, the GI50 in the assay with HT-29, in the assay on CAKI-1, in the assay on KM12, with RXF 393, in the assay on HCT-116 and in the assay on SW-620 was > 100 µM (inactive) in each case. In addition, the GI50 in the assay with SK-MEL-5, with NCI-H23 and in the assay on OVCAR-8 was > 100 µM (inactive) each time.

Take `O=C1CCC(=O)C(C(=O)CCC(=O)Nc2ccc(Cl)cc2)C1` (stereo not drawn): the GI50 is more than 100 µM with HCT-15; > 100 µM (inactive) with IGROV-1; > 100 µM (inactive) in the assay on K562; > 100 µM (inactive) in the assay with SF-295; > 100 µM (inactive) in the assay on A498; > 100 µM (inactive) with ACHN. For the same compound, the GI50 with SF-268, in the assay on HCC 2998, with HT-29, in the assay with CAKI-1, with KM12 and in the assay with HCT-116 was > 100 µM (inactive) each time. Moreover, the GI50 with SW-620, in the assay with SK-MEL-5, in the assay with NCI-H23 and with OVCAR-8 was > 100 µM (inactive) in each case.

Consider `Oc1cc(Cl)ncn1`, for which the GI50 in the assay with HCT-15 is more than 100 µM; in the assay with IGROV-1 it was > 100 µM (inactive); in the assay with K562, > 100 µM (inactive); with SF-295, > 100 µM (inactive); with A498 it was > 100 µM (inactive); with ACHN, > 100 µM (inactive). Besides, the GI50 in the assay with SF-268, in the assay on HCC 2998, in the assay on HT-29, in the assay on CAKI-1, in the assay with KM12 and in the assay on HCT-116 was > 100 µM (inactive) in each case. For the same compound, the GI50 with SW-620, in the assay with SK-MEL-5, in the assay on NCI-H23 and in the assay on OVCAR-8 was > 100 µM (inactive) throughout.

Take `Cc1c(C(=O)CC(=O)C(=O)NC2C3CC4CC(C3)CC2C4)[n+]([O-])c2ccccc2[n+]1[O-]` (stereo not drawn): the GI50 with HCT-15 is more than 100 µM; in the assay with IGROV-1 it was > 100 µM (inactive); in the assay with K562, > 100 µM (inactive); in the assay on SF-295 it was > 100 µM (inactive); in the assay with A498, > 100 µM (inactive); in the assay on ACHN, > 100 µM (inactive). Further, the GI50 in the assay on SF-268, in the assay with HCC 2998, in the assay with HT-29, in the assay with CAKI-1, in the assay with KM12 and in the assay on RXF 393 was > 100 µM (inactive) in each case. Besides, the GI50 in the assay on HCT-116, in the assay with SW-620, in the assay on SK-MEL-5, in the assay on NCI-H23 and in the assay on OVCAR-8 was > 100 µM (inactive) each time.

As for `CCOC(=O)c1cnc2sc3ccc4ccccc4c3n2c1=O`, the GI50 was 46.3 µM in the assay on HCT-15; 42.5 µM (inactive) in the assay on IGROV-1; 37.6 µM (inactive) with K562; 58.9 µM (inactive) with SF-295; 33.1 µM (inactive) in the assay with ACHN; 92.7 µM (inactive) in the assay with SF-268. In addition, the GI50 with HCC 2998 was > 100 µM (inactive); in the assay on HT-29, 87.5 µM (inactive); in the assay with CAKI-1, 29.5 µM (inactive); in the assay with KM12, 68.4 µM (inactive); with RXF 393 it was > 100 µM (inactive); in the assay on HCT-116, 41.4 µM (inactive). Further, the GI50 with SW-620 is > 100 µM (inactive); in the assay with SK-MEL-5, 32.1 µM (inactive); in the assay with NCI-H23, 62.5 µM (inactive); with OVCAR-8, 48.6 µM (inactive).

For the compound `CC(C)CCS(=O)(=O)OCCCCOS(=O)(=O)CCC(C)C`, the GI50 in the assay on HCT-15 was more than 100 µM; with IGROV-1, > 100 µM (inactive); in the assay on K562 it was > 100 µM (inactive); in the assay with SF-295, > 100 µM (inactive); in the assay on ACHN, > 100 µM (inactive); in the assay with SF-268, > 100 µM (inactive). Besides, the GI50 in the assay on HCC 2998, in the assay with HT-29, in the assay with KM12, in the assay with RXF 393, with HCT-116 and in the assay on SW-620 was > 100 µM (inactive) throughout. Also, the GI50 with NCI-H23 and in the assay with OVCAR-8 was > 100 µM (inactive) each time.

For `CCC(=C(C#N)C#N)c1cc(OC)c(OC)c(OC)c1`, the GI50 in the assay with HCT-15 was more than 100 µM; in the assay on IGROV-1, > 100 µM (inactive); in the assay on K562, > 100 µM (inactive); with ACHN, > 100 µM (inactive); with SF-268 it was > 100 µM (inactive); in the assay on HCC 2998, > 100 µM (inactive). The GI50 in the assay on HT-29, in the assay with CAKI-1, in the assay with KM12, in the assay with RXF 393, in the assay on HCT-116 and with SW-620 was > 100 µM (inactive) throughout. For the same compound, the GI50 in the assay with SK-MEL-5, in the assay on NCI-H23 and in the assay on OVCAR-8 was > 100 µM (inactive) in each case.

In the case of `c1ccc(C2=NOC3(c4ccccc4)SC4CCCCC4CN23)cc1` (stereo not drawn), the GI50 was 26.7 µM in the assay on HCT-15; 14.7 µM (inactive) in the assay on IGROV-1; 20.2 µM (inactive) in the assay on K562; 28.1 µM (inactive) with SF-295; 35.5 µM (inactive) with A498; 26.2 µM (inactive) with ACHN. In addition, the GI50 with SF-268 is 22.8 µM (inactive); in the assay with HCC 2998 it was 55.1 µM (inactive); in the assay on HT-29, 28.2 µM (inactive); in the assay on CAKI-1 it was 19.5 µM (inactive); with KM12 it was 25.5 µM (inactive); in the assay on RXF 393 it was 15.9 µM (inactive). Further, the GI50 in the assay with HCT-116 is 17.8 µM (inactive); in the assay on SW-620 it was 30.6 µM (inactive); with SK-MEL-5 it was 15.2 µM (inactive); with NCI-H23 it was 29.8 µM (inactive).

Take `COc1ccc2c(c1)[n+]([O-])c(-c1ccc(C)cc1)c(N)[n+]2[O-]`: the GI50 was 45.8 µM in the assay on HCT-15; 43.3 µM (inactive) in the assay with IGROV-1; 67.1 µM (inactive) with K562; > 100 µM (inactive) in the assay with SF-295; > 100 µM (inactive) with A498; 57.4 µM (inactive) with ACHN. Also, the GI50 is 52.5 µM (inactive) in the assay with HT-29; 49.2 µM (inactive) in the assay with CAKI-1; 44.8 µM (inactive) in the assay with KM12; > 100 µM (inactive) in the assay with HCT-116; 38.4 µM (inactive) with SW-620; 35.8 µM (inactive) with SK-MEL-5. The GI50 was 20.9 µM (inactive) in the assay on NCI-H23 and 66.2 µM (inactive) in the assay on OVCAR-8.
